Tests used:
Caki-2 = conditions: Caki-2, in vitro; cited from earlier work
Caki-1 cells [1] = assay: Caki-1 xenograft tumor growth in nude mice; assay type: in vivo, Nu/Nu mice; conditions: for tumor size and weight at sacrifice versus vehicle: tolvaptan 120 mg/Kg daily oral gavage or dDAVP 1 μg/Kg daily IP
Procedure: Female Athymic Nude-Foxn1^nu mice (Nu/Nu mice), 7-8 weeks old and weighing ˜25 g were procured from Envigo/Harlan. All animal studies were carried out according to the protocols approved by the University of Kansas Medical Center Institutional Animal Care and Use Committee. Mice were subcutaneously injected on the right flank region with 1×10^6 Caki-1 cells in 100 μl of DMEM medium. […] Once the tumor volume reached ˜80-100 mm^3, mice were randomized into sub-groups based on the tumor volume. Animals were administered vehicle, OPC31260 (30 mg/Kg BWt.), OPC31260 (60 mg/Kg BWt) or dDAVP (1 μg/Kg BWt.) and vehicle (saline) by daily intraperitoneal injection, (60 mg/Kg BWt) or dDAVP (1 μg/Kg BWt.) and vehicle (saline) by daily intraperitoneal injection, or tolvaptan (120 mg/Kg BWt. in 1% aqueous solution of hydroxypropyl methylcellulose-dose derived from previous study^31) or vehicle by daily oral gavage for 28 days. Body weights and tumor volumes were measured every alternate day. At the end of the study, mice were injected with BRDU (100 mg/Kg BWt. by IP) 90 minutes before sacrifice. Tumors were harvested, photographed and weighed. Tumors were flash frozen or paraffin embedded for further analysis.

[2] = tested on: pERK1/2, ERK1/2, pCREB, CREB, VEGF; assay: Immunoblotting of xenograft tumor lysates; assay type: in vivo, Nu/Nu mice; conditions: for VEGF protein levels in tumors compared to vehicle: OPC31260 IP, daily 28 days
Procedure: (§1) Female Athymic Nude-Foxn1^nu mice (Nu/Nu mice), 7-8 weeks old and weighing ˜25 g were procured from Envigo/Harlan. All animal studies were carried out according to the protocols approved by the University of Kansas Medical Center Institutional Animal Care and Use Committee. Mice were subcutaneously injected on the right flank region with 1×10^6 Caki-1 cells in 100 μl of DMEM medium. One week after injection, palpable tumors appeared and tumor volume was measured with calipers following the formula, […]. Once the tumor volume reached ˜80-100 mm^3, mice were randomized into sub-groups based on the tumor volume. Animals were administered vehicle, OPC31260 (30 mg/Kg BWt.), OPC31260 (60 mg/Kg BWt) or dDAVP (1 μg/Kg BWt.) and vehicle (saline) by daily intraperitoneal injection, or tolvaptan (120 mg/Kg BWt. in 1% aqueous solution of hydroxypropyl methylcellulose-dose derived from previous study^31) or vehicle by daily oral gavage for 28 days. Body weights and tumor volumes were measured every alternate day. At the end of the study, mice were injected with BRDU (100 mg/Kg BWt. by IP) 90 minutes before sacrifice. Tumors were harvested, photographed and weighed. Tumors were flash frozen or paraffin embedded for further analysis.
Tumors from mouse xenografts and cultured 786-O and Caki-1 cells were homogenized in SDS Laemmli buffer and loaded onto 10% SDS-polyacrylamide agarose gel electrophoresis gels, transferred to nitrocellulose membranes and blocked with 5% milk in TBST^32. Membranes were probed with primary antibody followed by wash and horseradish peroxidase secondary antibody application.

CCRCC = assay: Immunocompetent animal model of spontaneous CCRCC; assay type: in vivo, Vh1Δ/ΔTrp53Δ/ΔRb1Δ/Δ mice; conditions: treatment from 30 weeks after start of tamoxifen till 56 weeks
Source text: The Vh1^Δ/ΔTrp53^Δ/ΔRb1^Δ/Δ mice (Harlander S et al, Nat Med 2017 23(7):869-877) can spontaneously develop CCRCC. Gene deletion of Vhl and tumor suppressors p53 and Rb 1 will be achieved using a Ksp1.3-CreERT2, tamoxifen-inducible system. For the studies, 6-week old Vh1^Δ/ΔTrp53^Δ/ΔRb1^Δ/ΔKsp1.3-CreERT2 mice will be treated with vehicle (saline) or tamoxifen for 14 days used to obtain wildtype control mice and Vh1^Δ/ΔTrp53^Δ/ΔRb1^Δ/Δ mice with RCC stumors. Starting 30 weeks after start of tamoxifen, the wildtype and Vh1^Δ/ΔTrp53^Δ/ΔRb1^Δ/Δ mice will be treated with vehicle, dDAVP, OPC31260, or tolvaptan till 56 weeks. The effect of V2R activation or inhibition will be monitored by MRI as well as by gross and pathological analysis and of kidneys at sacrifice.

[3] = assay type: in vivo; conditions: tolvaptan 120 mg/Kg daily oral gavage or dDAVP 1 μg/Kg daily IP, 28 days; for urine osmolality: data not shown
Procedure: as §1

Caki-1 cells [4] = assay: Immunostaining of xenograft tumor sections (Ki-67, BRDU, CD31); assay type: in vivo, Nu/Nu mice; conditions: for BRDU staining / incorporation of tumors compared to vehicle / Ki-67 staining of tumors compared to vehicle / tumor micro-vessel density (CD31 staining): OPC31260 IP, tolvaptan 120 mg/Kg oral, dDAVP 1 μg/Kg IP, daily 28 days
Procedure: as §1
Tumor tissues were fixed overnight in 4% paraformaldehyde, dehydrated in a graded alcohol series, and embedded in paraffin for histological analysis as previously described^26. Slides with 5 μm tissue sections were heated in a steamer for 20 min in citrate buffer (pH 6.0) to unmask antigens. Slides were further blocked with 10% goat serum (Invitrogen) and then incubated overnight with primary antibody (V2R, CD31, BRDU, Ki67 and p-H3). After washing the slides with PBST, slides were incubated with appropriate fluorescence-labeled secondary antibody (Invitrogen) and streptavidin HRP conjugated (Invitrogen) secondary antibody for immunoflurorescence and immunohistochemistry, respectively. Slides were also incubated in 4′,6-diamidino-2-phenylindole to visualize nuclei. For immunofluorescence staining, slides were mounted with Fluoromount G (Southern Biotech). For immunohistochemistry, slides were developed with DAB (Vector Laboratories) and counterstained with Harris haematoxylin, dehydrated, and mounted with Permount (Fisher Scientific, Waltham, Mass.). All images were captured using a Nikon 80i microscope (Tokyo, Japan) at the KUMC Imaging Center.

Caki-1 cells [5] = assay: TUNEL assay for apoptosis in xenograft tumor sections; assay type: in vivo, Nu/Nu mice; conditions: OPC31260 IP, tolvaptan 120 mg/Kg oral, dDAVP 1 μg/Kg IP, daily 28 days
Procedure: as §1
TUNEL assays were performed to check apoptosis using the in situ Cell Death Detection Kit (Roche Applied Science, Indianapolis, Ind.). Briefly, slides with 5-μm tumor sections were treated to a TUNEL reaction mixture containing terminal deoxynucleotidyl transferase and nucleotides, including tetramethylrhodamine-labeled dUTP. Both Dapi stained and TUNEL-positive nuclei were counted as described for proliferating cell nuclear antigen. All images were captured using a Nikon 80i microscope (Tokyo, Japan) in the KUMC Imaging Center.

A498 cells = conditions: A498, in vitro; cited from earlier work
V1bR = molecular target: T1, V1bR (Homo sapiens, UniProt P47901); conditions: cited from earlier work
T1 sequence (P47901 1-424): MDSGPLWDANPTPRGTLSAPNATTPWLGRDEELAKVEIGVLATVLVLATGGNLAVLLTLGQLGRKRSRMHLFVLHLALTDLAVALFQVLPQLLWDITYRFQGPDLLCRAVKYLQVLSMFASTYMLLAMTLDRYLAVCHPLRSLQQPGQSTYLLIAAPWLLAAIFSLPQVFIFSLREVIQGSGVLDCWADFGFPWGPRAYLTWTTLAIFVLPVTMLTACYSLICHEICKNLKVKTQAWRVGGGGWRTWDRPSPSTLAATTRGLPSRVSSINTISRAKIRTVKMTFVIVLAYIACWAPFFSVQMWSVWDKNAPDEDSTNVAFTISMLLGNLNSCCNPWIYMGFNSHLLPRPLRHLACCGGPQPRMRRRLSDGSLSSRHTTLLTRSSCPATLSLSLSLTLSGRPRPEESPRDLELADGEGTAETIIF

V2R [6] = molecular target: T2, V2R (Homo sapiens, UniProt P30518); conditions: cited from earlier work
[7] = humans; cited from earlier work
[8] = in vivo; cited from earlier work
V2R [9] = molecular target: T2, V2R; conditions: cited from earlier work; remark: listed apart in the source
[10] = dDAVP 1 μg/Kg daily IP injection, day 28
[11] = OPC31260 30/60 mg/kg IP, tolvaptan 120 mg/Kg oral, dDAVP 1 μg/Kg IP, 28 days
[12] = tolvaptan 120 mg/Kg oral, dDAVP 1 μg/Kg IP

T2 sequence (P30518 whole entry): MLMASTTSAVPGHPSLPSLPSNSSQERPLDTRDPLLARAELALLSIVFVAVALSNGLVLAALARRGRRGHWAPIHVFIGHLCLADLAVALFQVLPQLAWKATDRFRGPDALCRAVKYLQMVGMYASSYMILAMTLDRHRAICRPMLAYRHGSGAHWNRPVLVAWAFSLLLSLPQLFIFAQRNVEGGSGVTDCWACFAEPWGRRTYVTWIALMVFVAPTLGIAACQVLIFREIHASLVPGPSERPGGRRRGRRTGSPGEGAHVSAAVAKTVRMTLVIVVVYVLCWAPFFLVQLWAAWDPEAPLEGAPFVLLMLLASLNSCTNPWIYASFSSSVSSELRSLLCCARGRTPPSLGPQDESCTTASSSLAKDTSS

Structure (SMILES) | tumor size and weight at sacrifice versus vehicle (Caki-1 cells [1]; 28 days) | pCREB levels in tumor lysates [2, 11] | pERK1/2 levels in tumor lysates [2, 11] | VEGF protein levels in tumors compared to vehicle [2, 12] | expected tumor burden / tumor growth (CCRCC) | body weight of the mice [3] | toxicity [3] | urine osmolality [3] | BRDU staining / incorporation of tumors compared to vehicle (Caki-1 cells [4]) | Ki-67 staining of tumors compared to vehicle (Caki-1 cells [4]) | tumor micro-vessel density (CD31 staining) (Caki-1 cells [4]) | TUNEL staining of tumors compared to vehicle (Caki-1 cells [5]) | other results
NC(=O)CC[C@@H]1NC(=O)[C@H](Cc2ccccc2)NC(=O)[C@H](Cc2ccc(O)cc2)NC(=O)CCSSC[C@@H](C(=O)N2CCC[C@H]2C(=O)N[C@H](CCCN=C(N)N)C(=O)NCC(N)=O)NC(=O)[C@H](CC(N)=O)NC1=O [dDAVP, 1-desamino-8-d-arginine vasopressin] | larger than in the vehicle group | increased | reduced | did not affect | increased tumor burden | did not significantly change | minimal obvious toxicity | increased | no significant change | significant increase | increased | no significant change | proliferation on V2R activation (Caki-2): increased proliferation; tumor volume till day 21 (Caki-1 cells [1]; dDAVP 1 μg/Kg daily IP injection): did not increase significantly; tumor volume by day 28, higher than its baseline (Caki-1 cells [1]; [10]): 16 fold; tumor volume by day 28, higher than vehicle group (Caki-1 cells [1]; [10]): 2 fold; ERK1/2 levels in tumor lysates ([2]; dDAVP 1 μg/Kg IP, 28 days): reduced; proliferation on V2R activation (A498 cells): increased proliferation
Cc1ccccc1C(=O)Nc1ccc(C(=O)N2CCCC(O)c3cc(Cl)ccc32)c(C)c1 (stereo not drawn) [tolvaptan, N-[4-[(7-chloro-2,3,4,5-tetrahydro-5-hydroxy-1H-1-benzazepin-1-yl)carbonyl]-3-methylphenyl]-2-methylbenzamide] | smaller and weighed significantly less | reduced | reduced | significantly reduced | significantly suppress tumor growth | did not significantly change | minimal obvious toxicity | significantly reduced | significantly reduced | significantly reduced | did not appear to alter | increased | tumor volume versus vehicle (Caki-1 cells [1]; tolvaptan 120 mg/Kg daily oral gavage, 28 days): significantly reduced; inhibition of V1bR (V1bR): does not inhibit; CREB levels in tumor lysates ([2]; OPC31260 30/60 mg/kg IP, tolvaptan 120 mg/Kg oral, 28 days): reduced; intrinsic V2R agonistic effect (V2R [6]): no intrinsic V2R agonistic effect; mean absolute bioavailability [7]: 56%; effect on cell proliferation and apoptosis compared with OPC31260 (Caki-1 cells [4]; tolvaptan 120 mg/Kg oral versus OPC31260 IP): relatively lower than that of OPC31260; oral activity compared with OPC31260 [8]: relatively better oral activity than OPC31260; selectivity in blocking [3H]AVP binding to human V2R than V1aR (V2R [9]): 29 fold
CCOc1ccc2c(c1)C1(CCC(OCCN3CCOCC3)CC1)C(=O)N2S(=O)(=O)c1ccc(C(=O)NC(C)(C)C)cc1OC (stereo not drawn) [satavaptan] |  |  |  |  |  |  |  |  |  |  |  |  | effect on dDAVP-induced proliferation (Caki-2): abolished dDAVP-induced proliferation; effect on time-dependent increase in cell proliferation (baseline) (Caki-2): did not reduce; effect on dDAVP-induced proliferation (A498 cells): abolished dDAVP-induced proliferation; effect on time-dependent increase in cell proliferation (baseline) (A498 cells): did not reduce

From US11110098B2, “Methods and medicaments for the treatment of renal cell carcinoma” (University of Kansas, priority 2017, dated 2021)
